Data as given in ChEMBL document CHEMBL1141239, “New series of potent delta-opioid antagonists containing the H-Dmt-Tic-NH-hexyl-NH-R motif” (Bioorg Med Chem Lett, 2005).
Square brackets hold non-standard residues; d marks the D form. Peptide text beside a SMILES is read from it. Dmt = Cc1cc(O)cc(C)c1C[C@H](N)C(=O)O; Tic = O=C(O)[C@@H]1Cc2ccccc2CN1

Tests used:
[1] = molecular target: T1, Delta-type opioid receptor (Mus musculus, UniProt P32300); experiment: Agonistic activity at delta opioid receptor in mouse vas deferens; assay type: functional, tissue-based
[2] = molecular target: T1, Delta-type opioid receptor; experiment: Displacement of deltorphin-II from delta opioid receptor in mouse vas deferens; assay type: functional; details: read-out: pA2 (converted)
[3] = molecular target: Delta-type opioid receptor (Rattus norvegicus, UniProt P33533); experiment: Displacement of [3H]deltorphin II from delta opioid receptor in rat brain membrane; assay type: cell membranes
Mu-type opioid receptor [4] = molecular target: Mu-type opioid receptor (Cavia porcellus, UniProt P97266); experiment: Agonistic activity against mu opioid receptor in guinea-pig ileum; assay type: functional, tissue-based
Mu-type opioid receptor [5] = molecular target: Mu-type opioid receptor (Rattus norvegicus, UniProt P33535); experiment: Displacement of [3H]DAMGO from mu opioid receptor in rat brain membrane; assay type: cell membranes
[6] = molecular target: Opioid receptors; mu & delta (Rattus norvegicus) (UniProt P33533+P33535); experiment: Selectivity ratio of rat delta opioid receptor over rat mu opioid receptor; assay type: protein assay
Opioid receptors; mu & delta (Rattus norvegicus), sequence (P33533 whole entry, looked up): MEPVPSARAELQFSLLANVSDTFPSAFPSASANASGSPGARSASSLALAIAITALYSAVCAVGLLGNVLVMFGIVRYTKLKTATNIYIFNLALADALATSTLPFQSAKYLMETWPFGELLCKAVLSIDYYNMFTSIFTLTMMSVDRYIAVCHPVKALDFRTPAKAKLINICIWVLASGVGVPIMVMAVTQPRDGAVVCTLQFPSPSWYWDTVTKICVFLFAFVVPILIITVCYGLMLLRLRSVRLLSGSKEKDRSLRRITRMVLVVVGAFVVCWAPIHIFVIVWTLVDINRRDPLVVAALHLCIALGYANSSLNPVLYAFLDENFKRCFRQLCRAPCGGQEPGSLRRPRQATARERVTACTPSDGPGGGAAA
Opioid receptors; mu & delta (Rattus norvegicus), sequence (P33535 whole entry, looked up): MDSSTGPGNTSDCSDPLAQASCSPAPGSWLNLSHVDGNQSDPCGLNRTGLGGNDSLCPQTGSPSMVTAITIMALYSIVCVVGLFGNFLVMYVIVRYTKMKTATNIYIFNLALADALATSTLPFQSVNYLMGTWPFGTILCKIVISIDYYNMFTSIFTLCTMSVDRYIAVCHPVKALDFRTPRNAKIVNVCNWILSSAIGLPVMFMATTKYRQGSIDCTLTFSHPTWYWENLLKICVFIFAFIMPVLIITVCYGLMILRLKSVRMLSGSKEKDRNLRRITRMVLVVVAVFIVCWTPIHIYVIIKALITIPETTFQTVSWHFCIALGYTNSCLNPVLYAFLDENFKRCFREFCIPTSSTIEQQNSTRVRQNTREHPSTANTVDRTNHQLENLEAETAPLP

Mu-type opioid receptor (Rattus norvegicus, UniProt P33535), sequence (P33535 whole entry): as the sequence (P33535 whole entry, looked up) above
Mu-type opioid receptor (Cavia porcellus, UniProt P97266), sequence (P97266 whole entry): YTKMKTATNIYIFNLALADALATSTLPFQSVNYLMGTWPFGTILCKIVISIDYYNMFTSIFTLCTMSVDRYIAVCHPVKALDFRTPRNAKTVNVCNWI
Delta-type opioid receptor (Rattus norvegicus, UniProt P33533), sequence (P33533 whole entry): as the sequence (P33533 whole entry, looked up) above
T1 sequence (P32300 whole entry): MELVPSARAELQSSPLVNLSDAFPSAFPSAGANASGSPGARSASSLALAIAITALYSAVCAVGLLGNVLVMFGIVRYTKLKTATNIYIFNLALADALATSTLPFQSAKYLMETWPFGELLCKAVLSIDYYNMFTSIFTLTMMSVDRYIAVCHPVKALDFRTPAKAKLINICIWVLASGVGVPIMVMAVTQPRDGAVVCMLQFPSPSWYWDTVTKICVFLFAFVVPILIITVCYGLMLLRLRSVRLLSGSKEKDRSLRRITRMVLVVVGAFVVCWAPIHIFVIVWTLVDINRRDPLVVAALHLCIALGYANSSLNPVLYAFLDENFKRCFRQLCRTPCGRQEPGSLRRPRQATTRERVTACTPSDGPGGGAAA

| SMILES | IC50 [1] [nM] | Kb [2] [nM] | Ki [3] [nM] | IC50 (Mu-type opioid receptor [4]) [nM] | Ki (Mu-type opioid receptor [5]) [nM] | Ratio Ki [6] |
| --- | --- | --- | --- | --- | --- | --- |
| Cc1cc(O)cc(C)c1C[C@H](N)C(=O)NCCCCCCNC(=O)C1Cc2ccccc2CN1C(=O)[C@@H](N)Cc1c(C)cc(O)cc1C (some centres undefined) | > 10000 | 0.0631 | 0.23 | 5900 | 0.38 | 2 |
| Cc1cc(O)cc(C)c1C[C@H](N)C(=O)N1Cc2ccccc2C[C@H]1C(=O)O (H-[Dmt]-[Tic]-OH) |  | 3.16 |  |  |  |  |
| Cc1cc(O)cc(C)c1C[C@H](N)C(=O)N1Cc2ccccc2CC1C(=O)NCCCCCCNC(=O)[C@@H](N)Cc1ccccc1 (some centres undefined) | > 10000 | 0.0501 | 0.89 | 5550 | 1.91 | 2 |
| Cc1cc(O)cc(C)c1C[C@H](N)C(=O)N1Cc2ccccc2CC1C(=O)NCCCCCCNC(=O)C1Cc2ccccc2CN1 (some centres undefined) | > 10000 | 0.0398 | 0.13 | 1600 | 2.81 | 22 |
